Test results from patent publication US9023789B2, “Amylin analogs and pharmaceutical compositions thereof” (Novo Nordisk A/S, priority 2012, dated 2015).
Read-outs that look alike come from different tables or passages of the source. Numbered stars: 1 amine (or outer) side, 2 acyl side, 3 side chain; on linkers, the order of the positions; unused ones are H or OH. Bridge positions count the residues as written; N and C are the ends. Side chains are listed from the residue outwards. Peptide text beside a SMILES is read from it. * marks the point of attachment. C20 diacid = O=C(O)CCCCCCCCCCCCCCCCCCC(=O)*; γGlu = O=C(O)[C@H](CCC(=O)[*:2])N[*:1]

Key:
[1] = biological target: T1, rat calcitonin receptor (Rattus norvegicus, UniProt P32214); assay: ASSAY (VIII) binding to the rat calcitonin receptor; conditions: Table 7, read-out: rCTR bind IC50
T1 construct: expressed in transfected cells; host or cells: BHK tk'ts 13 (transient, FuGENE 6), membranes
T1 sequence (P32214 25-479 isoform P32214-2 limits assumed): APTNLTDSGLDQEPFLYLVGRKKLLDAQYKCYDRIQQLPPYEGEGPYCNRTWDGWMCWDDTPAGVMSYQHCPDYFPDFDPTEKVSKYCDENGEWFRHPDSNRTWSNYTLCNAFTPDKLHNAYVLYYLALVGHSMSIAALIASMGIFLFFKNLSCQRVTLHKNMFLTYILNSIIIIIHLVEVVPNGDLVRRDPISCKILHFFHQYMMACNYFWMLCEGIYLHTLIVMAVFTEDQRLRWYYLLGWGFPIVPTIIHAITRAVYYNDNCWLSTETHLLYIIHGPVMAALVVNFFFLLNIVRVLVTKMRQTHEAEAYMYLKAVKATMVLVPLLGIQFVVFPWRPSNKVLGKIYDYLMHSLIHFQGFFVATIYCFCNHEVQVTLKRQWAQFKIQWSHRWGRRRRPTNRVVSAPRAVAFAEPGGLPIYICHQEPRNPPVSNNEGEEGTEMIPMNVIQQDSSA
Outline: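 Receptor source: membranes from transiently transfected BHK tk′ts 13 cells expressing rat calcitonin receptor, collected roughly 48 hours after transfection.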

[2] = biological target: T2, human amylin receptor (membranes from Amylin 3(a)/CRE-luc cells) (Homo sapiens, UniProt O60896+P30988); assay: ASSAY (V) binding to the human amylin receptor (SPA, 125I-rat amylin); conditions: for IC50: Table 4, read-out: hAmylin-R bind IC50;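 on all read-outs here: competition binding of cell membranes (35 ng/µL) mixed with SPA beads in 384-well plates at 40 µL total volume, read by scintillation counting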
T2 construct: expressed in transfected cells
T2 sequence (P30988 25-474): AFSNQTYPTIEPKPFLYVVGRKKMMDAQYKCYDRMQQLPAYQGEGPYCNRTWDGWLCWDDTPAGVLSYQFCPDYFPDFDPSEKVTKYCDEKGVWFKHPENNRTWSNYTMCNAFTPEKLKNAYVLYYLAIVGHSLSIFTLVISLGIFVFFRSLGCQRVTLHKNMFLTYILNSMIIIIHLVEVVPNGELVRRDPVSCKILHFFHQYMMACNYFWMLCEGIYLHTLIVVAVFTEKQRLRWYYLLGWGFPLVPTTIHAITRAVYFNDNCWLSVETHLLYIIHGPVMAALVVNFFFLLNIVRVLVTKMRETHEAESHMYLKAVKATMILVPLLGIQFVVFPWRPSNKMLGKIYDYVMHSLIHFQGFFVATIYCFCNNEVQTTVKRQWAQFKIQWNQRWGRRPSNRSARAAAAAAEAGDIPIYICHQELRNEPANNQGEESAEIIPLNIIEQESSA
T2 sequence (O60896 24-148 partner): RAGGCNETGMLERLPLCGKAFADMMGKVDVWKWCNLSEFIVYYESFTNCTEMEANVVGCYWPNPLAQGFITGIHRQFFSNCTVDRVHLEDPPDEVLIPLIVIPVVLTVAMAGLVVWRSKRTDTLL

[3] = ASSAY (IV) determination of solubility; type: physicochemical
Outline: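 UPLC read-out of polypeptide concentration after centrifugation. Samples: aqueous polypeptide stock ([…]) + 100 mM buffer 1:1, glycylglycine pH 3.0–5.0 or bistrispropane pH 6.0–8.0; 18 h, RT.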

[4] = biological target: T3, rat amylin receptor (rat calcitonin receptor + rat RAMP 3) (Rattus norvegicus, UniProt P32214+Q9JJ73); assay: ASSAY (VI) binding to the rat amylin receptor; conditions: for IC50: binding to rat amylin receptor, read-out: rAmylin-R bind IC50
T3 construct: expressed in transfected cells; host or cells: BHK tk'ts 13 (transient, FuGENE 6), membranes
T3 sequence (P32214 25-479 isoform P32214-2 limits assumed): T1 sequence (P32214 25-479 isoform P32214-2 limits assumed)
T3 sequence (Q9JJ73 23-147 partner): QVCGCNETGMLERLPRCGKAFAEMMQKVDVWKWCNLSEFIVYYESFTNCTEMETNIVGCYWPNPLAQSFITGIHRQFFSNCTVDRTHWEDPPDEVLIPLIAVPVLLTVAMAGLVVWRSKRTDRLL
Outline: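 The cell-membrane assay assessed binding at the rat amylin receptor. BHK tk′ts 13 cells were transfected transiently with rat calcitonin receptor, with FuGENE® 6 (Roche) as the transfection reagent, used per the manufacturer's recommendations. Approximately 48 hours after transfection the cells were harvested, and membranes were prepared for measuring binding.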

[5] = tested on: Sprague Dawley (SD) rats; assay: ASSAY (I) efficacy testing on appetite (food intake) using an ad libitum fed rat model; type: in vivo; conditions: rat, 30 nmol/kg
Outline: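 Individual food consumption was logged each hour up to 7 h and again at 24 h, occasionally 48 h, with Grubbs-test outliers removed. Each 200–250 g Sprague Dawley rat, free-feeding in its home cage under reversed lighting, received a single ip, po or sc dose of 0.01–3 mg/kg at lights-off, alongside a vehicle group.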

[6] = Table 5, selectivity, hCTR bind IC50 / hAmylin-R bind IC50
[7] = Table 5a, selectivity, hCTR bind IC50 / hAmylin-R bind IC50
[8] = Table 5b, selectivity, hCTR bind IC50 / hAmylin-R bind IC50
[9] = Table 5c, selectivity, hCTR bind IC50 / hAmylin-R bind IC50
[10] = Table 7, human binding selectivity, included for comparison
[11] = Table 7a (preferred compounds), human binding selectivity, included for comparison
[12] = ratio of human calcitonin receptor binding IC50 to human amylin receptor binding IC50
[13] = bistrispropane buffer, pH 6.5, read-out: Solubility pH 6.5 Concentration
[14] = bistrispropane buffer, pH 7.5, read-out: Solubility pH 7.5 Concentration
[15] = bistrispropane buffer, pH 6.0, read-out: Solubility pH 6.0 Concentration
[16] = bistrispropane buffer, pH 7.0, read-out: Solubility pH 7.0 Concentration
[17] = bistrispropane buffer, pH 8.0, read-out: Solubility pH 8.0 Concentration
[18] = glycylglycine buffer, pH 3.0, read-out: Solubility pH 3.0 Concentration
[19] = glycylglycine buffer, pH 4.0, read-out: Solubility pH 4.0 Concentration
[20] = glycylglycine buffer, pH 5.0, read-out: Solubility pH 5.0 Concentration
[21] = Table 7, rat binding selectivity, rCTR IC50 / rAmylin-R IC50
[22] = Table 7a (preferred compounds), rat binding selectivity, rCTR IC50 / rAmylin-R IC50
[23] = ratio of rCTR bind IC50 to rAmylin-R bind IC50

| Structure (SMILES) | IC50 [1] | Ratio hCT/hAmylin binding [2, 6] | Ratio hCT/hAmylin binding [2, 7] | Ratio hCT/hAmylin binding [2, 10] | Ratio hCT/hAmylin binding [2, 11] | Ratio hCT/hAmylin binding [2, 12] | solubility at 18 h [3, 13] | solubility at 18 h [3, 14] | solubility at 18 h [3, 15] | solubility at 18 h [3, 16] | solubility at 18 h [3, 17] | solubility at 18 h [3, 18] | solubility at 18 h [3, 19] | solubility at 18 h [3, 20] | IC50 ([4]; Table 7) | Ratio rCT/rAmylin binding [4, 21] | Ratio rCT/rAmylin binding [4, 22] | Ratio rCT/rAmylin binding [4, 23] | Food intake reduction 0-24 h 30 nmol/kg (%) [5] | Food intake reduction 24-48 h 30 nmol/kg (%) [5] | other results |
| --- | --- | --- | --- | --- | --- | --- | --- | --- | --- | --- | --- | --- | --- | --- | --- | --- | --- | --- | --- | --- | --- |
| CC[C@H](C)[C@H](NC(=O)[C@H](C)NC(=O)CNC(=O)[C@H](Cc1ccccc1)NC(=O)[C@H](CC(N)=O)NC(=O)[C@@H]1CCCN1C(=O)[C@H](CO)NC(=O)[C@H](CO)NC(=O)[C@H](Cc1c[nH]cn1)NC(=O)[C@H](CCCNC(=N)N)NC(=O)[C@H](CC(C)C)NC(=O)[C@H](Cc1ccccc1)NC(=O)[C@H](CO)NC(=O)[C@H](C)NC(=O)[C@H](CC(C)C)NC(=O)[C@H](CCCNC(=N)N)NC(=O)[C@H](CCC(N)=O)NC(=O)[C@@H](NC(=O)[C@H](C)NC(=O)[C@@H]1CSSC[C@H](NC(=O)[C@@H](N)CCCCNC(=O)CC[C@H](NC(=O)CC[C@H](NC(=O)CCCCCCCCCCCCCCCCCCC(=O)O)C(=O)O)C(=O)O)C(=O)N[C@@H](CC(N)=O)C(=O)N[C@@H]([C@@H](C)O)C(=O)N[C@@H](C)C(=O)N[C@@H]([C@@H](C)O)C(=O)N1)[C@@H](C)O)C(=O)N1CCC[C@H]1C(=O)N[C@@H](CO)C(=O)N[C@@H](CO)C(=O)N[C@H](C(=O)N[C@@H](CC(N)=O)C(=O)N[C@H](C(=O)NCC(=O)N1CCC[C@H]1C(=O)N[C@@H](CCC(=O)O)C(=O)N[C@H](C(=O)N[C@@H](Cc1ccc(O)cc1)C(N)=O)[C@@H](C)O)C(C)C)[C@@H](C)O [Example 120] (H-K([γGlu-γGlu-C20 diacid])CNTATCATQRLASFLRHSSPNFGAIPSSTNVGPETY-NH2; disulfide 2-7 (inferred); N-terminus assumed) | 140 nM | 45.3 | 45.3 | 45.3 | 45.3 | 45.3 | ≥ 200 µM | ≥ 200 µM | ≥ 200 µM | ≥ 200 µM | ≥ 200 µM | ≥ 200 µM | ≥ 200 µM | ≥ 200 µM | 0.161 nM | 867.7 | 867.7 | 867.7 | 66% | 61% | IC50 [2]: 0.076 nM; Ratio hCT/hAmylin binding [2, 8]: 45.3; Ratio hCT/hAmylin binding [2, 9]: 45.3 |
| CC[C@H](C)[C@H](NC(=O)[C@H](C)NC(=O)CNC(=O)[C@H](Cc1ccccc1)NC(=O)[C@H](CC(N)=O)NC(=O)[C@@H]1CCCN1C(=O)[C@H](CO)NC(=O)[C@H](CO)NC(=O)[C@H](Cc1c[nH]cn1)NC(=O)[C@H](CCCNC(=N)N)NC(=O)[C@H](CC(C)C)NC(=O)[C@H](Cc1ccccc1)NC(=O)[C@H](Cc1c[nH]cn1)NC(=O)[C@H](C)NC(=O)[C@H](CC(C)C)NC(=O)[C@H](CCCNC(=N)N)NC(=O)[C@H](CCC(N)=O)NC(=O)[C@@H](NC(=O)[C@H](C)NC(=O)[C@@H]1CSSC[C@H](NC(=O)[C@@H](N)CCCCNC(=O)CC[C@H](NC(=O)CCCCCCCCCCCCCCCCCCC(=O)O)C(=O)O)C(=O)N[C@@H](CC(N)=O)C(=O)N[C@@H]([C@@H](C)O)C(=O)N[C@@H](C)C(=O)N[C@@H]([C@@H](C)O)C(=O)N1)[C@@H](C)O)C(=O)N1CCC[C@H]1C(=O)N[C@@H](CO)C(=O)N[C@@H](CO)C(=O)N[C@H](C(=O)N[C@@H](CC(N)=O)C(=O)N[C@H](C(=O)NCC(=O)N[C@@H](CCCNC(=N)N)C(=O)N[C@@H](CC(N)=O)C(=O)N[C@H](C(=O)N[C@@H](Cc1ccc(O)cc1)C(N)=O)[C@@H](C)O)C(C)C)[C@@H](C)O [Example 85] (H-K([γGlu-C20 diacid])CNTATCATQRLAHFLRHSSPNFGAIPSSTNVGRNTY-NH2; disulfide 2-7 (inferred); N-terminus assumed) | 146 nM | 91.8 | 91.8 | 91.8 | 91.8 | 91.8 | ≥ 200 µM | ≥ 200 µM | ≥ 200 µM | ≥ 200 µM | ≥ 200 µM | ≥ 200 µM | ≥ 200 µM | ≥ 200 µM | 3.14 nM | 46.5 | 46.5 | 46.5 | 30% | 6% | IC50 [2]: 0.876 nM; Ratio hCT/hAmylin binding [2, 8]: 91.8; Ratio hCT/hAmylin binding [2, 9]: 91.8 |
| CC[C@H](C)[C@H](NC(=O)[C@H](C)NC(=O)CNC(=O)[C@H](Cc1ccccc1)NC(=O)[C@H](CC(N)=O)NC(=O)[C@@H]1CCCN1C(=O)[C@H](CO)NC(=O)[C@H](CO)NC(=O)[C@H](Cc1c[nH]cn1)NC(=O)[C@H](CCCNC(=N)N)NC(=O)[C@H](CC(C)C)NC(=O)[C@H](Cc1ccccc1)NC(=O)[C@H](CCC(=O)O)NC(=O)[C@H](C)NC(=O)[C@H](CC(C)C)NC(=O)[C@H](CCCNC(=N)N)NC(=O)[C@H](CCC(N)=O)NC(=O)[C@@H](NC(=O)[C@H](C)NC(=O)[C@@H]1CSSC[C@H](NC(=O)[C@H](CCCCN)NC(=O)CC[C@H](NC(=O)CCCCCCCCCCCCCCCCCCC(=O)O)C(=O)O)C(=O)N[C@@H](CC(N)=O)C(=O)N[C@@H]([C@@H](C)O)C(=O)N[C@@H](C)C(=O)N[C@@H]([C@@H](C)O)C(=O)N1)[C@@H](C)O)C(=O)N1CCC[C@H]1C(=O)N[C@@H](CO)C(=O)N[C@@H](CO)C(=O)N[C@H](C(=O)N[C@@H](CC(N)=O)C(=O)N[C@H](C(=O)NCC(=O)N1CCC[C@H]1C(=O)N[C@@H](CC(N)=O)C(=O)N[C@H](C(=O)N[C@@H](Cc1ccc(O)cc1)C(N)=O)[C@@H](C)O)C(C)C)[C@@H](C)O [Example 32] ({C20 diacid-γGlu}-KCNTATCATQRLAEFLRHSSPNFGAIPSSTNVGPNTY-NH2; disulfide 2-7) | 5.98 nM | 10.9 | 10.9 | 10.9 | 10.9 | 10.9 | ≥ 200 µM | ≥ 200 µM | ≥ 200 µM | ≥ 200 µM | ≥ 200 µM | ≥ 200 µM | ≥ 200 µM | ≥ 200 µM | 0.176 nM | 34.0 | 34.0 | 34.0 | 62% | 7% |  |
